Results reported in ChEMBL document CHEMBL1201862, “PubChem BioAssay data set” (2004).
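Assay format: 96-well plates, 48-hour exposure. The concentration for 50% growth inhibition is given as GI50.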 Calls of active or inactive are those of the source. Rule as the data show it: active = GI50 up to about 1.1 µM and inactive = higher.

Legend:
Assay in all cases: growth of human tumour cells (NCI), 48 h
[1] = tested on: DU-145
[2] = tested on: UACC-62
[3] = tested on: HOP-62
[4] = tested on: SK-MEL-2
[5] = tested on: SF-539
[6] = tested on: NCI-H460
[7] = tested on: SNB-19
[8] = tested on: HCC 2998
[9] = tested on: MCF7
[10] = tested on: SK-MEL-28
[11] = tested on: SF-295
[12] = tested on: SF-268
[13] = tested on: SNB-75
[14] = tested on: Hs-578T
[15] = tested on: HCT-116
[16] = tested on: KM12
[17] = tested on: NCI-H226
[18] = tested on: K562
[19] = tested on: HOP-92
[20] = tested on: ACHN

SMILES | GI50 [1] | GI50 [2] | GI50 [3] | GI50 [4] | GI50 [5] | GI50 [6] | GI50 [7] | GI50 [8] | GI50 [9] | GI50 [10] | GI50 [11] | GI50 [12] | GI50 [13] | GI50 [14] | GI50 [15] | GI50 [16] | GI50 [17] | GI50 [18] | GI50 [19] | GI50 [20]
C=C1C(=O)O[C@@H]2/C=C(C)/C=C\[C@@H]3O[C@@]3(C)C[C@@H](O)C12 (stereo not given in full) | 3.63 µM (inactive) | 12.9 µM (inactive) | 36.1 µM (inactive) | 30.8 µM (inactive) | 7.73 µM (inactive) | 28.9 µM (inactive) | 17.5 µM (inactive) | 18.9 µM (inactive) | 4.4 µM (inactive) | 19.9 µM (inactive) | 49.7 µM (inactive) | 26.4 µM (inactive) | 44.3 µM (inactive) | 39.2 µM (inactive) | 8.13 µM (inactive) | 15.5 µM (inactive) | 9.1 µM (inactive) | 3.5 µM (inactive) | 5.98 µM (inactive) | 5.24 µM (inactive)
CCOc1cc2c(NCCCN(CCO)CCO)ncnc2c(OCC)c1OCC | > 100 µM (inactive) | > 100 µM (inactive) | > 100 µM (inactive) | > 87.3 µM (inactive) | > 100 µM (inactive) | > 100 µM (inactive) | > 100 µM (inactive) | 22 µM (inactive) | > 100 µM (inactive) | > 62.5 µM (inactive) | > 100 µM (inactive) | > 100 µM (inactive) | > 74.8 µM (inactive) | 82.2 µM (inactive) | > 100 µM (inactive) | > 100 µM (inactive) | 21.7 µM (inactive) | > 100 µM (inactive) | 34.3 µM (inactive) | > 100 µM (inactive)
COc1cc(/C=N/n2c(-c3ccccc3)n[nH]c2=O)cc(OC)c1OC | 5.77 µM (inactive) | 2.34 µM (inactive) | 4.93 µM (inactive) | 3.87 µM (inactive) | 1.96 µM (inactive) | 0.826 µM (active) | 6.37 µM (inactive) | > 100 µM (inactive) | 1.3 µM (inactive) | > 28 µM (inactive) | 0.745 µM (active) | 3.51 µM (inactive) | 2.48 µM (inactive) | 3.56 µM (inactive) | 0.641 µM (active) | 0.425 µM (active) | > 41.3 µM (inactive) | 0.598 µM (active) | 13.8 µM (inactive) | 4.02 µM (inactive)
CCOC(=O)C1(C(=O)OCC)[C@H](c2ccccc2)C2=NO[C@@H]3CCC[C@H]1[C@H]23 | > 100 µM (inactive) | 15.2 µM (inactive) | 20.5 µM (inactive) | 40.9 µM (inactive) | > 100 µM (inactive) | 60.5 µM (inactive) | > 100 µM (inactive) | 22.1 µM (inactive) | 41.4 µM (inactive) | > 100 µM (inactive) | 33.4 µM (inactive) | > 100 µM (inactive) | 30.1 µM (inactive) | > 100 µM (inactive) | 54.1 µM (inactive) | 34.8 µM (inactive) | 32.9 µM (inactive) | 21.3 µM (inactive) | 54 µM (inactive) | 84.3 µM (inactive)
COc1ccc(C(=O)c2[nH]c(Nc3ccc(Cl)cc3)c(C(=S)Nc3ccccc3)c2N)cc1 | > 100 µM (inactive) | > 100 µM (inactive) | > 100 µM (inactive) | > 100 µM (inactive) | > 100 µM (inactive) | > 100 µM (inactive) | > 100 µM (inactive) | > 100 µM (inactive) | 70.5 µM (inactive) | 22.8 µM (inactive) | > 100 µM (inactive) | > 100 µM (inactive) | 44 µM (inactive) | > 100 µM (inactive) | 60.7 µM (inactive) | > 100 µM (inactive) | 47 µM (inactive) | > 100 µM (inactive) | > 100 µM (inactive) | > 100 µM (inactive)
O=C1N=C(Nc2ccccc2Cl)N/C1=C\c1ccc(Cl)cc1Cl | 33.3 µM (inactive) | > 100 µM (inactive) | 62.4 µM (inactive) | 18.9 µM (inactive) | 37.8 µM (inactive) | 49.2 µM (inactive) | > 100 µM (inactive) | 53.5 µM (inactive) | 31.4 µM (inactive) | 99.8 µM (inactive) | 60.8 µM (inactive) | > 100 µM (inactive) | 29.9 µM (inactive) | > 100 µM (inactive) | 38.4 µM (inactive) | 45.6 µM (inactive) | 25.1 µM (inactive) | 9.46 µM (inactive) | 39.9 µM (inactive) | 62.1 µM (inactive)
COc1ccc2c(c1)CCC(CN1CCN(CCOC(c3ccc(F)cc3)c3ccc(F)cc3)CC1)=C2 | 19 µM (inactive) | 16.1 µM (inactive) | 33.9 µM (inactive) | 15.8 µM (inactive) | 13 µM (inactive) | 12.4 µM (inactive) | 42.5 µM (inactive) | 4.89 µM (inactive) | 13.6 µM (inactive) | 21.3 µM (inactive) | 22.2 µM (inactive) | 31.6 µM (inactive) | 46.5 µM (inactive) | 19.3 µM (inactive) | 7.26 µM (inactive) | 15.1 µM (inactive) | 13 µM (inactive) | 4.47 µM (inactive) | 16.1 µM (inactive) | 13.3 µM (inactive)
COc1ccccc1NCC(=O)Nn1c(C)nc2ccc(S(=O)(=O)Nc3ccccc3OC)cc2c1=O | > 100 µM (inactive) | 63.4 µM (inactive) | > 100 µM (inactive) | > 100 µM (inactive) | > 100 µM (inactive) | > 100 µM (inactive) | > 100 µM (inactive) | > 100 µM (inactive) | 63 µM (inactive) | > 100 µM (inactive) | 36.1 µM (inactive) | > 100 µM (inactive) | > 100 µM (inactive) | > 100 µM (inactive) | > 100 µM (inactive) | > 100 µM (inactive) | > 100 µM (inactive) | 80.4 µM (inactive) | > 100 µM (inactive) | > 100 µM (inactive)
O=Cc1ccc(-c2ccc(-c3ccc(CO)s3)o2)s1 | 11.5 µM (inactive) | 0.151 µM (active) | 17.4 µM (inactive) | 35.7 µM (inactive) | 17.9 µM (inactive) | 0.101 µM (active) | 32 µM (inactive) | 3.22 µM (inactive) | 0.348 µM (active) | > 35.9 µM (inactive) | 14.5 µM (inactive) | 18.6 µM (inactive) | 20.2 µM (inactive) | 16 µM (inactive) | 0.841 µM (active) | 42.6 µM (inactive) | 0.0681 µM (active) | 1.43 µM (inactive) | 17.5 µM (inactive) | 28.7 µM (inactive)
O=C1Nc2c(Cl)cc(Cl)cc2/C1=N/Nc1ccccc1[N+](=O)[O-] | > 100 µM (inactive) | 22.2 µM (inactive) | 5.47 µM (inactive) | 18.2 µM (inactive) | 13 µM (inactive) | 54.5 µM (inactive) | 23.7 µM (inactive) | > 100 µM (inactive) | > 100 µM (inactive) | 75.7 µM (inactive) | 11.7 µM (inactive) | 25.1 µM (inactive) | 4.28 µM (inactive) | 8.32 µM (inactive) | 38.2 µM (inactive) | 88.9 µM (inactive) | 49 µM (inactive) | 38.6 µM (inactive) | 12 µM (inactive) | 11.6 µM (inactive)
